Patent publication US7256182B2, “Gene delivery compositions and methods” (priority 1997, dated 2007)

Tested on: cardiac myocytes of acutely explanted rabbit heart
Assay: Adenovirus gene transfer in Langendorff-perfused explanted rabbit heart; β-galactosidase staining of isolated myocytes
Description: Adenovirus vectors. Adβgal contained the E. coli lac Z gene driven by the human cytomegalovirus (CMV) immediate early promoter. Virus stocks were expanded as previously described in Graham F L, Prevec L: Manipulation of adenovirus vectors, in Murray E J (ed): Methods in molecular biology. Clifton, N.J., Humana, 1991, pp 109-128, aliquoted in small volumes, and stored in phosphate-buffered saline (PBS) with 10% sucrose at −80° C. Viral titers were determined by the average of two plaque assays performed using a traditional method as described in Methods in molecular biology, supra.
Statistical Analysis. Unless otherwise stated, all experiments were performed in triplicate and the data are presented as mean ±s.d. Statistical significance was determined at the 5% level using the unpaired Student's t-test.
Baseline conditions for the Langendorff-perfusion experiments included a coronary flow rate of 30 ml/min, and perfusion with Krebs solution containing 1.0 mmol/L Ca^2+ and 1.0×10^8 pfu/ml of Adβgal at 37° C. All infections occurred in Krebs solution.
Acutely explanted rabbit heart (New Zealand White; 2-3 kg total body weight) were employed for gene transfer tests of this Example 1 and the following Example 2. The rabbits received heparin anticoagulation (1000 units IV) prior to pentobarbital (50 mg/kg IV). […]

Q: Which “change in percentage of infected myocytes by supplemental agent” value (agent perfused to enhance microvascular permeability, versus baseline) does the source give for `NCCc1c[nH]c2ccc(O)cc12` [serotonin] here?
A: significant increase

Q: What about the “percentage of infected myocytes” value (pretreatment 500 ml normal Krebs with 10^-5 M agent over 15 minutes, agent also present during Adβgal infection) of the same compound?
A: 77.8±2.3%
